Reference: article PMC9986244, “Connection between MHC class II binding and aggregation propensity: The antigenic peptide 10 of Paracoccidioides brasiliensis as a benchmark study” (Computational and Structural Biotechnology Journal, 2023)
“Also recorded” adds a separate entry of the source.

Columns and labels:
[1] = In vitro aggregation, light scattering (LS); format: physicochemical; conditions: 20 μM peptide in PBS pH 7.4 from 5 mM DMSO stock, 37 °C, 18 h under agitation; excitation and emission 320 nm; in words, Fig. 6
Method: (§1) For in-vitro aggregation assays, P10 and a total of ten selected P10 variants were purchased from Genscript with purity above 95 % and diluted in DMSO (Sigma-Aldrich code D8418) 100 % to a final concentration of 5 mM (stock solution) and kept at −20 °C for storage.
(§2) P10 and its variants stock solutions were diluted in PBS at 20 μM; pH 7.4 at 37 °C for 18 h under agitation. To measure light scattering (LS), samples were excited at 320 nm while emission was collected at 320 nm in the spectrofluorometer Jasco FP8200 (Jasco Corp., Tokyo, Japan). Aliquots of the aggregation suspension were diluted in the presence of Thioflavin-T (Sigma-Aldrich code T3516) (ThT; 50 μM and peptide 20 μM), a specific fluorescent probe for AF. ThT fluorescence emission was measured at 485 nm by exciting the samples at 450 nm. Congo red (Sigma-Aldrich code C6767) binding assays, another amyloid specific probe, were performed according to Palhano [47]. The samples (50 μL) were centrifuged at 17,000 X g for 30 min, and the pellet was incubated with 10 µM Congo red solution for 5 min. The absorbance was measured at 540 and 477 nm and the fraction of bound Congo red was determined by the following formula [mol of bound Congo red/mol of protein = OD540/25,295 – OD477/46,306].

[2] = In vitro aggregation, Thioflavin-T (ThT) binding; format: physicochemical; conditions: 20 μM peptide in PBS pH 7.4, 37 °C, 18 h; ThT 50 μM, excitation 450 nm, emission 485 nm; in words, Fig. 6
Method: as §1, §2

[3] = In vitro aggregation, Congo red (CR) binding; format: physicochemical; conditions: 20 μM peptide in PBS pH 7.4, 37 °C, 18 h; pellet (17,000 X g, 30 min) with 10 µM Congo red 5 min, absorbance 540 and 477 nm; in words, Fig. 6
Method: as §1, §2

[4] = Transmission electron microscopy (TEM) of aggregates; format: physicochemical; conditions: peptide in PBS, 18 h, 37 °C; negative staining 2 % uranyl acetate; 20 μM (Fig. 7 legend), 100 µM (method)
Method: […] of each peptide suspension (100 µM) was absorbed onto 200-mesh carbon-coated copper grids (Pelco, Ref: 01800 F) for 5 min and then blotted to remove excess material. Negative staining was performed by adding […] of 2 % (w/v) uranyl acetate. Samples were dried on air for 3 min. The grids were imaged with a Jeol 1200 electron microscope (Jeol Ltd.) operating at a 60 kV acceleration voltage.

[5] = previously shown; cited from earlier work
Source text: Since P10 aggregates into AF in vitro, we investigated whether the peptides probed with ProImmune REVEAL® binding assays were able to form amyloid aggregates as well. To address this question, we initially submitted the ten selected sequences of the P10 variants (V1, V3, V5, V6, V7, V10, V11, V14, V15 and V16) to Cordax, an amyloid structure predictor able to model a given structure into steric zippers common to amyloids. For most of these P10 variants, regardless of their SF, at least two types of consensus steric zippers encompassing the sequence ^7(H)TLAIR(Y)^13 were predicted. The exceptio ...

MHC-II alleles = conditions: cited from earlier work
Source text: (§3) In addition to peptide binding affinity, other properties to evaluate are their solubility and aggregation propensity. […] Many proteins and peptides in solution can aggregate into amyloid fibrils (AF), a type of aggregate that can accumulate in organs and tissues causing diseases such as Parkinson’s and Alzheimer’s. This is the case of P10 ([…]), ...

[6] = tested on: Paracoccidioides brasiliensis; conditions: immunization, compared with full gp43; cited from earlier work
Source text: as §3

[7] = depends on peptide concentration, pH and temperature; cited from earlier work
Source text: In addition to peptide binding affinity, other properties to evaluate are their solubility and aggregation propensity. […] Many proteins and peptides in solution can aggregate into amyloid fibrils (AF), a type of aggregate that can accumulate in organs and tissues causing diseases such as Parkinson’s and Alzheimer’s. […] Here, we describe an additional layer of information that could be used to predict good and poor epitope-binders to MHC-II, which is its aggregation propensity. According to the Aggregation hypothesis of antigen selection as enunciated by Forsdyke, [54], homoaggregation of antigen ...

Row | Sequence | Light scattering (LS) [1] | Thioflavin T (ThT) binding [2] | Congo red (CR) binding [3] | Morphology of aggregates by TEM [4] | Regions able to form steric zippers [5] | Binding to a set of MHC-II alleles (MHC-II alleles) | Protection of mice against Pb infection [6] | Aggregation in solution [7]
1 | QTLLDIHTLAIRYAN [Peptide V1] | behaved like P10 | behaved like P10 | behaved like P10 | amyloid fibrils were observed | – | – | – | –
2 | QTLTAIHTLAIRYAN [Peptide V6] | – | did not bind ThT | bind CR | formed mature amyloid fibrils | – | – | – | –
3 | QTYHAIHTLAIRYAN [Peptide V14] | – | – | – | ribbon-like appearance | – | – | – | –
4 | QTLIAIHTLAIRYAN [Peptide P10] | – | – | – | – | ^2TLIAIH^7, ^3LIAIHT^8, ^4IAIHTL^9, ^7HTLAIR^12 and ^8TLAIRY^13 | nanomolar | protecting mice against Pb infection as effectively as using the full gp43 | aggregate into insoluble AF; also recorded: more prominent at neutral pH than at acidic pH
5 | QGLKAIHTLAIRYAN [Peptide V10] | – | did not bind ThT | bind CR | formed mature amyloid fibrils | – | – | – | –
